Key:
ErbB2 [1] = molecular target: T1, ErbB2 (Homo sapiens, UniProt P04626); experiment: Eurofins in vitro kinase inhibition assay; assay type: biochemical; details: compound 20 µM; mean (SD); above 50% significant, 25-50% weak
T1 construct: purchased DiscoverX (KINOMEscan service); host or cells: E. coli BL21-derived host (T7 phage) or HEK-293
Description: (§1) Kinase inhibition assays for EGFR, ErbB2, PI3K and BRAF were carried out by Eurofins Cerep following the protocols of Weber et al. (EGFR), Quian et al. (ErbB2), Sinnamon et al. (PI3K) and Kupcho et al. (BRAF). Briefly, except for PI3K, compounds were incubated with the respective kinase, ATP, and a substrate analog, and the effect of each compound on phosphorylation was measured. In the case of PI3K, the displacement of biotinylated PIP3 from a PIP3-binding complex by unlabelled PIP3 (produced from PIP2 by PI3K) was measured by Homogeneous Time Resolved Fluorescence (HTRF).
(§2) Finally, inhibition of the respective kinases is calculated as the percentage inhibition of control activity.
(§3) Table S3. Experimental results from the Euroﬁns assay. Inhibition of four kinases (EGFR, PI3K, ErbB2, BRAF) was measured at compound concentrations of 20 µM. Inhibition was calculated as % inhibition of control activity. According to CRO, values above 50% inhibition represent signiﬁcant inhibition, values above 25% weak inhibition effect and values below 25% as well as negative values are usually not signiﬁcant. Results are reported in mean (SD) format. […]
(§4) a Compound interfered with assay readout.

BRAF [2] = molecular target: T2, BRAF (Homo sapiens, UniProt P15056); experiment: Eurofins in vitro kinase inhibition assay; assay type: biochemical; details: compound 20 µM; mean (SD); above 50% significant, 25-50% weak
T2 construct: purchased DiscoverX (KINOMEscan service); host or cells: E. coli BL21-derived host (T7 phage) or HEK-293
Description: as §1, §2, §3, §4

EGFR [3] = molecular target: T3, EGFR (Homo sapiens, UniProt P00533); experiment: Eurofins in vitro kinase inhibition assay; assay type: biochemical; details: compound 20 µM; mean (SD); above 50% significant, 25-50% weak
T3 construct: purchased DiscoverX (KINOMEscan service); host or cells: E. coli BL21-derived host (T7 phage) or HEK-293
Description: as §1, §2, §3, §4

PI3K [4] = molecular target: T4, PI3K (Homo sapiens, UniProt P42336); experiment: Eurofins in vitro kinase inhibition assay (HTRF, PIP3 displacement); assay type: biochemical; set-up: purchased Eurofins Cerep (contract assay); details: compound 20 µM; mean (SD); above 50% significant, 25-50% weak
Description: as §1, §2, §3, §4
Target sequence in this assay (P42336 whole entry): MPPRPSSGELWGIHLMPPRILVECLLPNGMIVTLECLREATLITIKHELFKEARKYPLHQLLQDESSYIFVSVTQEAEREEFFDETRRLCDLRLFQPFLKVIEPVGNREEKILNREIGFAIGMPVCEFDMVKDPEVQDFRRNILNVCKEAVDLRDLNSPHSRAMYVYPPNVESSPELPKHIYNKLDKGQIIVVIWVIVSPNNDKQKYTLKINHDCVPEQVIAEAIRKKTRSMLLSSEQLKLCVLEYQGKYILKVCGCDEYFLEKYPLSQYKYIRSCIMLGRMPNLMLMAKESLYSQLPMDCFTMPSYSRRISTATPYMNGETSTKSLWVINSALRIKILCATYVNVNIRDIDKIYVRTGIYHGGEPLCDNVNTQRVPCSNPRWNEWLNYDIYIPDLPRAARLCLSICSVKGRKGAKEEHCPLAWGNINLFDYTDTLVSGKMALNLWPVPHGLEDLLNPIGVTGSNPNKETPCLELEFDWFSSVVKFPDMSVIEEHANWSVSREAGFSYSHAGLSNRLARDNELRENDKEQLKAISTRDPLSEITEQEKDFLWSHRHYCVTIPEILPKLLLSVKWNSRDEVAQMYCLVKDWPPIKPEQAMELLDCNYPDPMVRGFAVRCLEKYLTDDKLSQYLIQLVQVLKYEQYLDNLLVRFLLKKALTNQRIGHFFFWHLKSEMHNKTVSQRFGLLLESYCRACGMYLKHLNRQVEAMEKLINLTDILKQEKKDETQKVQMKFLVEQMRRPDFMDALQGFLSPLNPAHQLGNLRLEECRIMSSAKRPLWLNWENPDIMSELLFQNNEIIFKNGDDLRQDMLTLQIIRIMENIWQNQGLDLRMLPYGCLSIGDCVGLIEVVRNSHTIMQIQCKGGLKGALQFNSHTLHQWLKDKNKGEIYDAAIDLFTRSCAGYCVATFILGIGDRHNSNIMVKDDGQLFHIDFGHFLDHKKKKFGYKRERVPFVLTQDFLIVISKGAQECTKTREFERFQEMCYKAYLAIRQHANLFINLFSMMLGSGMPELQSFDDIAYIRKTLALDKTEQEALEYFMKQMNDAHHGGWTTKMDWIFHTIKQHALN
Target sequence in this assay (P27986 whole entry partner): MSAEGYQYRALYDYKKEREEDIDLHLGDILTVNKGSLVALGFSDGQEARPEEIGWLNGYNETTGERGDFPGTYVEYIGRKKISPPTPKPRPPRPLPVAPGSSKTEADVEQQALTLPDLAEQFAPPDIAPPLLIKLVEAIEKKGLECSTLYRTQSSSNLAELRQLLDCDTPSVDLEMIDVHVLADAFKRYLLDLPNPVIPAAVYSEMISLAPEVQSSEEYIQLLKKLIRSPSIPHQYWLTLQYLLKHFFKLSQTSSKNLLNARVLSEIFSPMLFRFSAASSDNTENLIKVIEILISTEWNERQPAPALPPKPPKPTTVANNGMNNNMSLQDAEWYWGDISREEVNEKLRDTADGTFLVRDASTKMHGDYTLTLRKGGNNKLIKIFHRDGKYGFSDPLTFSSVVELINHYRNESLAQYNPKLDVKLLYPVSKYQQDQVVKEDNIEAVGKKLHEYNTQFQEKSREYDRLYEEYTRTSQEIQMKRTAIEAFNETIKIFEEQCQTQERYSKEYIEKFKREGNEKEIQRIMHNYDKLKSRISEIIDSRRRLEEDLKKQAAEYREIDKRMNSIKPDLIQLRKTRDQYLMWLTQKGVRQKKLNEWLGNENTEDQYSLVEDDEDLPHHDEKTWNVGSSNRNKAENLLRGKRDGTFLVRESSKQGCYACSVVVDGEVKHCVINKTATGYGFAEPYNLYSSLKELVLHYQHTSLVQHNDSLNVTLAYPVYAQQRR

PI3K [5] = molecular target: T4, PI3K; experiment: DiscoverX KINOMEscan competition binding assay; set-up: purchased DiscoverX (KINOMEscan service); host or cells: E. coli BL21-derived host (T7 phage) or HEK-293; details: compound 10 µM; lower values = higher affinity; below 35% = significant binding
Description: (§5) Ligand binding experiments for the molecules selected from Profiles 1 and 2 towards nine kinases (EGFR, ErbB2, LCK, CDK2, BRAF, MET, p38α, PI3K and VEGFR2) and for molecules selected from Profiles 3 and 4 towards four kinases (EGFR, ErbB2, BRAF and VEGFR2) were carried out by DiscoverX using the supplied protocol as described in the Supplementary Materials. Briefly, ligand affinity was measured by competition with a resin-bound standard ligand and washed-off kinase concentration was determined via qPCR.
(§6) Summarizing, binding of a compound to a kinase was tested in comparison to a control compound (see Table S2). […]
(§7) 1.1. DiscoverX kinase assay
(§8) For most assays, kinase-tagged T7 phage strains were grown in parallel in 24-well blocks in an E.coli host derived from the BL21 strain. E.coli were grown to log-phase and infected with T7 phage from a frozen stock (multiplicity of infection = 0.4) and incubated with shaking at 32°C until lysis (90-150 minutes). The lysates were centrifuged (6,000 x g) and ﬁltered (0.2µm) to remove cell debris.
(§9) The remaining kinases were produced in HEK-293 cells and subsequently tagged with DNA for qPCR detection. Streptavidin-coated magnetic beads were treated with biotinylated small molecule ligands for 30 minutes at room temperature to generate afﬁnity resins for the kinases. The liganded beads were blocked with excess biotin and washed with blocking buffer (SeaBlock [Pierce], 1% BSA, 0.05% Tween 20, 1 mM DTT) to remove unbound ligands and to reduce non-speciﬁc phage binding. Binding reactions were assembled by combining kinases, liganded afﬁnity beads, and test compounds in 1x binding buffer (20% SeaBlock, 0.17x PBS, 0.05% Tween 20, 6 mM DTT). Test compounds were prepared as 40x stocks in 100% DMSO and directly diluted into the assay. All reactions were performed in polypropylene 384-well plates in a ﬁnal volume of 0.02 ml. The assay plates were incubated at room temperature with shaking for 1 hour and the afﬁnity beads were washed with wash buffer (1x PBS, 0.05% Tween 20). The beads were then re-suspended in elution buffer (1x PBS, 0.05% Tween 20, 0.5 µM non-biotinylated afﬁnity ligand) and incubated at room temperature with shaking for 30 minutes. The kinase concentration in the eluates was measured by qPCR. […]
(§10) Table S2. Experimental % control values from the DiscoverX kinase assay. Compounds were tested against the nine kinases EGFR, ErbB2, LCK, CDK2, BRAF, MET, p38α, PI3K and VEGFR2, unless otherwise stated. Binding of kinase and compound were tested at a compound concentration of 10 µM and in comparison to a control compound. Lower values indicate a higher afﬁnity of the compound to the protein and values below 35% indicate signiﬁcant binding according to information of the CRO. […]
(§11) a Compounds were only tested against four kinases (EGFR, ErbB2, BRAF and VEGFR2). b Compound was selected independently from two docking proﬁles and tested separately during
Target sequence in this assay (P42336 whole entry): as the sequence (P42336 whole entry) above

MET = molecular target: T5, MET (Homo sapiens, UniProt P08581); experiment: DiscoverX KINOMEscan competition binding assay; details: compound 10 µM; lower values = higher affinity; below 35% = significant binding
T5 construct: purchased DiscoverX (KINOMEscan service); host or cells: E. coli BL21-derived host (T7 phage) or HEK-293
Description: as §5, §6, §7, §8, §9, §10, §11

LCK = molecular target: T6, LCK (Homo sapiens, UniProt P06239); experiment: DiscoverX KINOMEscan competition binding assay; details: compound 10 µM; lower values = higher affinity; below 35% = significant binding
T6 construct: purchased DiscoverX (KINOMEscan service); host or cells: E. coli BL21-derived host (T7 phage) or HEK-293
Description: as §5, §6, §7, §8, §9, §10, §11

ErbB2 [6] = molecular target: T1, ErbB2; experiment: DiscoverX KINOMEscan competition binding assay; details: compound 10 µM; lower values = higher affinity; below 35% = significant binding
Description: as §5, §6, §7, §8, §9, §10, §11

BRAF [7] = molecular target: T2, BRAF; experiment: DiscoverX KINOMEscan competition binding assay; details: compound 10 µM; lower values = higher affinity; below 35% = significant binding
Description: as §5, §6, §7, §8, §9, §10, §11

EGFR [8] = molecular target: T3, EGFR; experiment: DiscoverX KINOMEscan competition binding assay; details: compound 10 µM; lower values = higher affinity; below 35% = significant binding
Description: as §5, §6, §7, §8, §9, §10, §11

p38α = molecular target: T7, p38α (Homo sapiens, UniProt Q16539); experiment: DiscoverX KINOMEscan competition binding assay; details: compound 10 µM; lower values = higher affinity; below 35% = significant binding
T7 construct: purchased DiscoverX (KINOMEscan service); host or cells: E. coli BL21-derived host (T7 phage) or HEK-293
Description: as §5, §6, §7, §8, §9, §10, §11

VEGFR2 = molecular target: T8, VEGFR2 (Homo sapiens, UniProt P35968); experiment: DiscoverX KINOMEscan competition binding assay; details: compound 10 µM; lower values = higher affinity; below 35% = significant binding
T8 construct: purchased DiscoverX (KINOMEscan service); host or cells: E. coli BL21-derived host (T7 phage) or HEK-293
Description: as §5, §6, §7, §8, §9, §10, §11

CDK2 = molecular target: T9, CDK2 (Homo sapiens, UniProt P24941); experiment: DiscoverX KINOMEscan competition binding assay; details: compound 10 µM; lower values = higher affinity; below 35% = significant binding
T9 construct: purchased DiscoverX (KINOMEscan service); host or cells: E. coli BL21-derived host (T7 phage) or HEK-293
Description: as §5, §6, §7, §8, §9, §10, §11

T7 sequence (Q16539 whole entry): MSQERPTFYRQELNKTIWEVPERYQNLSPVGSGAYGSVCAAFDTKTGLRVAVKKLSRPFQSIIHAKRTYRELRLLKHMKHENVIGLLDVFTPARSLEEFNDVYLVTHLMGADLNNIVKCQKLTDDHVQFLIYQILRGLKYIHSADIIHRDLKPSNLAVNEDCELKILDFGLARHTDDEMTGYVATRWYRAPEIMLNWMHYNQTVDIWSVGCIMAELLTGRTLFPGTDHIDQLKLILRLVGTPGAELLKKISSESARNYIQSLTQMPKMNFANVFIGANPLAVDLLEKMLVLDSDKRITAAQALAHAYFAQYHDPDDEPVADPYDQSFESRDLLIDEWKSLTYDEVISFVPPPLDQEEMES
T2 sequence (P15056 whole entry): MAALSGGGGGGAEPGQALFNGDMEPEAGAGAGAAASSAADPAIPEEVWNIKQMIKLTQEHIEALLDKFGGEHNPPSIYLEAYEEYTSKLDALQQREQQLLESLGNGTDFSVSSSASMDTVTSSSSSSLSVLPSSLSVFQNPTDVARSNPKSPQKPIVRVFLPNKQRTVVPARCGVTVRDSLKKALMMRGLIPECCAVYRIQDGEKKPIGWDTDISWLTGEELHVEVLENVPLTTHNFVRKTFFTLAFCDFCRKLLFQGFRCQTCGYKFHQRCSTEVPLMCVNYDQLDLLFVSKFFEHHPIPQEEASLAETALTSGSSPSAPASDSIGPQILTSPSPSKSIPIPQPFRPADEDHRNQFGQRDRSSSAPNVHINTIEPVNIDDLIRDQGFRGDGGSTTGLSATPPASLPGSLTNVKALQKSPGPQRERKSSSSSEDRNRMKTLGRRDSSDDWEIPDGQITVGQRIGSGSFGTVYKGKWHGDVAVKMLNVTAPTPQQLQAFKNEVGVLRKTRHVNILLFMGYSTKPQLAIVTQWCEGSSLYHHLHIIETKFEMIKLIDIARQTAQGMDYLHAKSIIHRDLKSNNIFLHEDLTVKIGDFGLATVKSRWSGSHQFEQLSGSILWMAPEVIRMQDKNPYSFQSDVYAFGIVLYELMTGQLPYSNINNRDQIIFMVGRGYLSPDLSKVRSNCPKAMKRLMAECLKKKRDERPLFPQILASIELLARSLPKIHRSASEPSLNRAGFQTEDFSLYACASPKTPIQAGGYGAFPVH
T3 sequence (P00533 25-1210): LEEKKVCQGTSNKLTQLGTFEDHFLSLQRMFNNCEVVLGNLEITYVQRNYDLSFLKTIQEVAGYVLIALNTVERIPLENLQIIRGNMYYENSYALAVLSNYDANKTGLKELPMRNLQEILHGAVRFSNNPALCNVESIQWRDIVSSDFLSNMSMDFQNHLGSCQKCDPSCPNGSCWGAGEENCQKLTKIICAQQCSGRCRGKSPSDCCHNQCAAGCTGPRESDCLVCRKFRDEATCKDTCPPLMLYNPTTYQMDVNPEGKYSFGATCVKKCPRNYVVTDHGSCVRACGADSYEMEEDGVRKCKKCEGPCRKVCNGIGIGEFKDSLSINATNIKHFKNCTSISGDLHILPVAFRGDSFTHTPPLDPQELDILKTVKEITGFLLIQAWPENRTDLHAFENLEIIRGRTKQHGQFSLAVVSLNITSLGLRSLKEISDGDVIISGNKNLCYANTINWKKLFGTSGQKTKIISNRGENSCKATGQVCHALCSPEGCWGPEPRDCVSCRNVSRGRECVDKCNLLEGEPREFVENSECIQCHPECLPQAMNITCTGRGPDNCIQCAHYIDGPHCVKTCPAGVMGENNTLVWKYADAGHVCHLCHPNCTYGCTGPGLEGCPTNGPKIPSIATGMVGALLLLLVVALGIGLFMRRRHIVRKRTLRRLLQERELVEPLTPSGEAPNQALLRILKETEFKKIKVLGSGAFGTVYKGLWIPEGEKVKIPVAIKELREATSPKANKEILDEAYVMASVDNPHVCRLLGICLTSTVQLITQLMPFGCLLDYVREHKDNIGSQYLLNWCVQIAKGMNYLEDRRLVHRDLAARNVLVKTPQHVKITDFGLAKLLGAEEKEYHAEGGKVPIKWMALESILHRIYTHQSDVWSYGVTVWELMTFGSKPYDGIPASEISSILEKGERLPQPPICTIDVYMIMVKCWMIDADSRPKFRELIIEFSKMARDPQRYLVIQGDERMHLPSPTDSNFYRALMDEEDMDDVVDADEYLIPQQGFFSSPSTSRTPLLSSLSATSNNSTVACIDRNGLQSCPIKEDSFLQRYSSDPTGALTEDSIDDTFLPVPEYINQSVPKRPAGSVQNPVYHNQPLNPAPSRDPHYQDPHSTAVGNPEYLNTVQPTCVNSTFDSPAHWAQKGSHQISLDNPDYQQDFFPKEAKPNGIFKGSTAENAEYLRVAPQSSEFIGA
T6 sequence (P06239 whole entry): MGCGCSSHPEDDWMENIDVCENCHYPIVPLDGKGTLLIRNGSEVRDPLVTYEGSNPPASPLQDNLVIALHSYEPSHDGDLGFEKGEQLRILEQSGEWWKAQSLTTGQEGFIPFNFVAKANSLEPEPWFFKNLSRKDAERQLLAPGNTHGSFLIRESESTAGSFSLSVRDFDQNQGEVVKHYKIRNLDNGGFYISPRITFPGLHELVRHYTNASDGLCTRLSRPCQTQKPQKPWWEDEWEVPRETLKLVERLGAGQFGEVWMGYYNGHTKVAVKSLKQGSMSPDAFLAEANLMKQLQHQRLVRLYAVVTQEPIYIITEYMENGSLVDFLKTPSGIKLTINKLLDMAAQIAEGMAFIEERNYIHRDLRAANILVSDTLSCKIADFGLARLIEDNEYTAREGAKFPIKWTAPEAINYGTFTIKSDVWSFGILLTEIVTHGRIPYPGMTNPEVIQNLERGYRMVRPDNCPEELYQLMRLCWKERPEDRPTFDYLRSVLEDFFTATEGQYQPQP

Row | SMILES | % inhibition of control activity, ErbB2 (Eurofins) (ErbB2 [1]) | % inhibition of control activity, BRAF (Eurofins) (BRAF [2]) | % inhibition of control activity, EGFR (Eurofins) (EGFR [3]) | % inhibition of control activity, PI3K (Eurofins) (PI3K [4]) | % control, PI3K (DiscoverX) (PI3K [5]) [% control] | % control, MET (DiscoverX) (MET) [% control] | % control, LCK (DiscoverX) (LCK) [% control] | % control, ErbB2 (DiscoverX) (ErbB2 [6]) [% control] | % control, BRAF (DiscoverX) (BRAF [7]) [% control] | % control, EGFR (DiscoverX) (EGFR [8]) [% control] | % control, p38α (DiscoverX) (p38α) [% control] | % control, VEGFR2 (DiscoverX) (VEGFR2) [% control] | % control, CDK2 (DiscoverX) (CDK2) [% control]
1 | COCCCNC(=O)c1nc2c3c4c(sc3ncn2n1)CCC[C@H]4C [DS66846] | -2.5 (1.6) % inhibition | -18.7 (11.9) % inhibition | 14.5 (8.6) % inhibition | 4.6 (7.7) % inhibition | 100 | 92 | 100 | 96 | 100 | 100 | 100 | 100 | 100
2 | COCCCNC(=O)c1nc2c3c4c(sc3ncn2n1)COC(C)(C)C4 [DS11689] | 0.1 (2.1) % inhibition | -8.3 (20.8) % inhibition | 18.1 (7.9) % inhibition | -0.2 (0.4) % inhibition | 99 | 99 | 100 | 99 | 88 | 100 | 100 | 100 | 100
3 | CN(C)S(=O)(=O)c1cccc(C2=N/C(=C\c3cccc(F)c3)C(=O)O2)c1 [DS74631] | -4.6 (2.9) % inhibition | -22.8 (15.9) % inhibition | 11.3 (4.5) % inhibition | 20 (5.2) % inhibition | 100 | 100 | 87 | 95 | 100 | 97 | 83 | 100 | 100
4 | CCOCCCNC(=O)c1nc2c3c4c(sc3ncn2n1)CC[C@@H](C)C4 [DS82066] | -1.4 (0.8) % inhibition | -18.5 (1.8) % inhibition | 12.6 (1.9) % inhibition | 3.6 (2.3) % inhibition | 89 | 100 | 100 | 90 | 83 | 92 | 93 | 100 | 100
